Experimental data: patent EP4389113A1, “DOSAGE FORM FOR INTRAMEDULLARY INJECTION OR IMPLANTATION COMPRISING ELTROMBOPAG FOR USE IN THE IMPROVEMENT OF HEMATOPOIETIC STEM CELL TRANSPLANTATION” (PK MED, priority 2022, dated 2024)

How the values were obtained:
[1] = molecular target: T1, human MMP-8 (Homo sapiens, UniProt P22894); assay: Proteolysis of SDF-1α by activated MMP-8, multiplex western blot; type: biochemical
T1 construct: purchased R&D systems 908-MP
Description: (§1) • Particle size was determined using a Malvern Mastersizer MS3000 laser diffraction particle size analyzer. A 1 mg/ml microparticles in deionized water preparation was introduced in the apparatus and the measurement run 3 times. The results shown in the examples are the mean of the three measures. • Eltrombopag microparticle drug load was determined by first solubilizing 10 mg of drug-loaded polymeric microparticles in 2,5 mL of an acetonitrile/water mixture at a 80/20 v/v ratio. The medium was then centrifuged for 15 min at 4000 rpm and the supernatant filtrated through a 0.45 µm PTFE filter (Acrodisc PTFE). A 2 ml aliquot of the filtrated supernatant was then analyzed by HPLC to determine the microparticle drug load. HPLC analysis was conducted using a silica-based reversed-phase C18 column [Kinetex C18, 100mm × 4,6 mm, 2,6 µm particle size] and a mobile phase consisting in [acetonitrile/ammonium formate (10 mM) 80/20 v/v adjusted at pH 2]. The flow rate was set at 0,5 mL/min, the injection volume was 10µL and the UV detection was set at 244 nm. • For incubation of Eltrombopag olamine with activated human proteases, proMMP-8 and pro MMP-9 proteases were first activated. Human proMMP-8 (Cat. no. 908-MP, R&D systems) at 100 µg/ml in buffer containing 50 mM Tris, 150 mM NaCl (sodium chloride), 5 mM CaCl2 (calcium chloride) and 0.01% tween 20 (pH 7.6) was activated by incubation with 1 mM p-aminophenylmercuric acetate for 1h at 37°C. Human proMMP-9 was expressed in Sf9 cells, purified by gelatin-sepharose chromatography and activated by incubation with the catalytic domain of MMP-3 (cat. No. 444217, Merck Millipore). Specifically, human proMMP-9 at 920 µg/ml in the same described buffer as for MMP-8 activation was incubated with the catalytic domain of MMP-3 at a molar ratio of 1/100 (MMP-3/MMP-9) for 2h at 37°C in. The final concentration of MMP-9 was 10 µM and the final concentration of MMP-3 was 0.1 µM. Concentrated eltrombopag olamine solution was prepared by solubilization in water at a concentration of 10 mg/ml for 24h on rotor at 4°C, and further diluted at the final concentration needed. Activated MMP-8 or MMP-9 were then incubated at a final concentration of 625 nM in Eltrombopag olamine at different concentrations (50 µM, 10 µM, 1 µM and 0.1 µM) in a final volume of 3µl for 30 minutes at 37°C in calcium-free buffer containing 50 mM Tris, 150 mM NaCl, 0.01% tween 20 (pH 7.6) using low protein-binding tubes (Protein LoBind tubes, Eppendorf). • Incubation of human SDF-1α (Cat. no. 300-28A, Peprotech) in the solution containing the activated human proteases and eltrombopag olamine was done at a MMP/SDF-1 molar ratio of 1/5 in the same calcium-free buffer and tubes described, with a final SDF-1 α concentration of 3.125 µM and a final volume of 4µl at 37°C for 2h. A negative control without eltrombopag olamine was similarly prepared. • SDF-1 proteolysis was analyzed by multiplex western blot. All samples were diluted in reducing loading buffer (10% β-mercaptoethanol, 0.1% bromophenol blue, 4% SDS (sodium dodecyl sulfate), 20% glycerol, 125 mM Tris, pH 6.8) and boiled at 90°C for 20 min. Next, the equivalent of 100 ng SDF-1 was loaded onto Novex 16% tricine gels (Cat. no. EC6695BOX, Invitrogen). The Chameleon Duo Pre-stained Protein Ladder was used as a molecular weight using 6ul in one well. Proteins in the samples were separated by denaturing SDS-PAGE using tricine running buffer (100 mM Tris, 100 mM Tricine, 0.1% SDS, pH 8.3) under a constant voltage of 120V (±60 min). After electrophoresis, proteins were transferred to polyvinylidene difluoride (PVDF) membranes with the Trans-Blot Turbo Transfer System (Biorad) with Trans-Blot Turbo RTA Mini 0.45 µm low fluorescence PVDF Transfer Kit (Cat. No. 1704274, Biorad). […]

[2] = molecular target: T2, human MMP-9 (Homo sapiens, UniProt P14780); assay: Proteolysis of SDF-1α by activated MMP-9, multiplex western blot; type: biochemical
T2 construct: made in house; host or cells: Sf9 cells
Description: as §1

[3] = after oral administration of a 50 mg tablet; cited from earlier work
[4] = SDF-1 plus MMP-8 plus 0.1 µM eltrombopag olamine
[5] = SDF-1 plus MMP-8 plus 1 µM eltrombopag olamine
[6] = SDF-1 plus MMP-8 plus 10 µM eltrombopag olamine
[7] = SDF-1 plus MMP-8 plus 50 µM eltrombopag olamine
[8] = SDF-1 plus MMP-9 plus 0.1 µM eltrombopag olamine
[9] = SDF-1 plus MMP-9 plus 1 µM eltrombopag olamine
[10] = SDF-1 plus MMP-9 plus 10 µM eltrombopag olamine
[11] = SDF-1 plus MMP-9 plus 50 µM eltrombopag olamine

T2 sequence (P14780 107-707 limits assumed): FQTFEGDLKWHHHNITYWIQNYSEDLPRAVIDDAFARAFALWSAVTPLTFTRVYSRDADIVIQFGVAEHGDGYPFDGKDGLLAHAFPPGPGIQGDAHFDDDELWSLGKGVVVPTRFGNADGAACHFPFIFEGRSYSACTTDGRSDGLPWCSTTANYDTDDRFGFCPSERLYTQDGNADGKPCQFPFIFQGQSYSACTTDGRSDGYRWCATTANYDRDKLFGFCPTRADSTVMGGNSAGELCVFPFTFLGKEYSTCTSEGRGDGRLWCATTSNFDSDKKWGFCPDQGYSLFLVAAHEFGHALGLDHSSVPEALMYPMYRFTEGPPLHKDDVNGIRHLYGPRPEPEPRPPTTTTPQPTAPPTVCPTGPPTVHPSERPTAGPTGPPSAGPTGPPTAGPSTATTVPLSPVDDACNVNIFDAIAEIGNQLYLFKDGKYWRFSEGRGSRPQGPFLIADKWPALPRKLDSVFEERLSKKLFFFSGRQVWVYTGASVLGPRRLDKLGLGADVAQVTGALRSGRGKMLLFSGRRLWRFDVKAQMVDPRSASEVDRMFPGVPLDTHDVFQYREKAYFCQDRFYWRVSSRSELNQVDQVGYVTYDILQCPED
T1 sequence (P22894 101-467): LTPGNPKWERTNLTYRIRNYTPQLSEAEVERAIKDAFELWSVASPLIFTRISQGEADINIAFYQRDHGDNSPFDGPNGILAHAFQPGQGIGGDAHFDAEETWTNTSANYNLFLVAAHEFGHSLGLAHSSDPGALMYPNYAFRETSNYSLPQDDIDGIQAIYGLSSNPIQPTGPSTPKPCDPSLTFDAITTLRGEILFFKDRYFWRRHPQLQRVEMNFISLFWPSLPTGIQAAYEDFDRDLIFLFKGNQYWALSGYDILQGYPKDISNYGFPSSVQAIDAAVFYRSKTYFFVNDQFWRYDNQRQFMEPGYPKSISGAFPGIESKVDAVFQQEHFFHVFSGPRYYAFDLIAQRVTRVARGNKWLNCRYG

Question: With CC1=NN(c2ccc(C)c(C)c2)C(=O)/C1=N\Nc1cccc(-c2cccc(C(=O)O)c2)c1O.NCCO.NCCO [eltrombopag olamine, 3'-{(2Z)-2-[1-(3,4-dimethylphenyl)-3-methyl-5-oxo-1,5-dihydro-4H-pyrazol-4-ylidene]hydrazino}-2'-hydroxy-3-biphenylcarboxylic acid - 2-aminoethanol (1:2)] as the molecule, how does the “intact SDF-1α retrieved” value ([1]; MMP-8 in the presence of 50 µM eltrombopag olamine, only 3.5% in its absence) read?
Answer: 30%

Question: And the “N-term intact SDF-1α (RFUs)” value [1, 4]?
Answer: 0,0006 RFUs

Question: What about the “Ratio of intact/total SDF-1α” value [1, 4] of the same molecule?
Answer: 0,0001

Question: And the “Total SDF-1α (RFUs)” value [1, 4]?
Answer: 7,501 RFUs

Question: What about the “N-term intact SDF-1α (RFUs)” value [1, 5] of the same molecule?
Answer: 0,0001 RFUs

Question: And the “Ratio of intact/total SDF-1α” value [1, 5]?
Answer: 0,0000

Question: What about the “Total SDF-1α (RFUs)” value [1, 5] of the same molecule?
Answer: 7,986 RFUs

Question: And the “N-term intact SDF-1α (RFUs)” value [1, 6]?
Answer: 0,0001 RFUs

Question: What about the “Ratio of intact/total SDF-1α” value [1, 6] of the same molecule?
Answer: 0,0000

Question: And the “Total SDF-1α (RFUs)” value [1, 6]?
Answer: 6,989 RFUs

Question: And the “Ratio of intact/total SDF-1α” value [1, 7]?
Answer: 0,0002

Question: What about the “Total SDF-1α (RFUs)” value [1, 7] of the same molecule?
Answer: 10,430 RFUs

Question: What about the “N-term intact SDF-1α (RFUs)” value ([1]; SDF-1 plus MMP-8 plus 50 µM eltrombopag olamine, MMP/SDF-1α molar ratio 1/5, 37°C, 2h) of the same molecule?
Answer: 0,0020 RFUs

Question: What about the “intact SDF-1α retrieved” value ([2]; MMP-9 in the presence of 50 µM eltrombopag olamine, only 20% in its absence) of the same molecule?
Answer: 72%

Question: And the “N-term intact SDF-1α (RFUs)” value [2, 8]?
Answer: 0,013 RFUs

Question: And the “Ratio of intact/total SDF-1α” value [2, 8]?
Answer: 0,003

Question: What about the “Total SDF-1α (RFUs)” value [2, 8] of the same molecule?
Answer: 3,951 RFUs

Question: What about the “N-term intact SDF-1α (RFUs)” value [2, 9] of the same molecule?
Answer: 0,012 RFUs

Question: And the “Ratio of intact/total SDF-1α” value [2, 9]?
Answer: 0,003

Question: What about the “Total SDF-1α (RFUs)” value [2, 9] of the same molecule?
Answer: 3,644 RFUs

Question: And the “N-term intact SDF-1α (RFUs)” value [2, 10]?
Answer: 0,010 RFUs

Question: And the “Ratio of intact/total SDF-1α” value [2, 10]?
Answer: 0,002

Question: What about the “Total SDF-1α (RFUs)” value [2, 10] of the same molecule?
Answer: 4,142 RFUs

Question: What about the “Ratio of intact/total SDF-1α” value [2, 11] of the same molecule?
Answer: 0,007

Question: And the “Total SDF-1α (RFUs)” value [2, 11]?
Answer: 4,687 RFUs

Question: And the “N-term intact SDF-1α (RFUs)” value ([2]; SDF-1 plus MMP-9 plus 50 µM eltrombopag olamine, MMP/SDF-1α molar ratio 1/5, 37°C, 2h)?
Answer: 0,033 RFUs

Question: For CC1=NN(c2ccc(C)c(C)c2)C(=O)/C1=N\Nc1cccc(-c2cccc(C(=O)O)c2)c1O [EPAG, 3'-[(2Z)-[1-(3,4-dimethylphenyl)-1,5-dihydro-3-methyl-5-oxo-4H-pyrazol-4-ylidene]hydrazino]-2'-hydroxy-[1,1'-biphenyl]-3-carboxylic acid], which maximum plasmatic concentration [3] is on record?
Answer: 14 µM
